Kd data for two compounds are collected here from paper PMC12238253 (Nature Communications, 2025).

In this test the target is T1, His6-LIMP-2_35-430 (Homo sapiens, UniProt Q14108).
T1 sequence (Q14108 35-430): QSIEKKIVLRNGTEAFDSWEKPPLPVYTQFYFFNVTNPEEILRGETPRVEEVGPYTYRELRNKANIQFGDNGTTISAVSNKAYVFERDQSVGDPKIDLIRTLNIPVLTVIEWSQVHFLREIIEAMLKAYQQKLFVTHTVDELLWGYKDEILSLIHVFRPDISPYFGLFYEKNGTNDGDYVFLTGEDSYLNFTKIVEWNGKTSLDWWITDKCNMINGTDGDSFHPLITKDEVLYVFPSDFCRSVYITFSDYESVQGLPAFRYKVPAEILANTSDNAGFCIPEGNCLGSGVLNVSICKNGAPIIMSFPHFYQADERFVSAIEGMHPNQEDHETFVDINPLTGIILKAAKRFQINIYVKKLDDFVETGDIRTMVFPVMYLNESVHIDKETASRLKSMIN
As to the kind of experiment: microscale thermophoresis. Format: binding.

In turn, `COc1ccc2cc1Oc1ccc(cc1)C[C@H]1c3cc(c(OC)cc3CCN1C)Oc1c(OC)c(OC)cc3c1[C@H](C2)N(C)CC3` [Tetrandrine] showed a Kd of 241 µM.

As to `CC(C)CCC[C@@H](C)[C@H]1CC[C@H]2[C@@H]3CC=C4C[C@@H](O)CC[C@]4(C)[C@H]3CC[C@]12C` [cholesterol], the affinity, expressed as Kd, was 3.7 µM.
